Test results taken from US20040147561A1, “Pyrid-2-one derivatives and methods of use” (priority 2002, published 2004).
Counter-ions that a name gives are not always drawn.

For `CCOC(=O)c1cc(-c2csc(-c3csc(C)n3)n2)c(=O)[nH]c1C` [Example 36], which melting point is on record?
The melting point was 195 °C (dec.).

Which melting point does the source give for `CCOC(=O)c1cc(-c2csc(-c3ccnc(NCC4CC4)c3)n2)c(=O)[nH]c1C` (as salt: HCl) [Example 61, Ethyl 5-{2-[2-(cyclopropylmethyl-amino)-pyridin-4-yl]-thiazol-4-yl}-2-methyl-6-oxo-1,6-dihydro-3-pyridinecarboxylate] here?
Its melting point is greater than 260 °C.

With `CCOC(=O)c1cc(-c2csc(-c3ccnc(NCC(C)C)c3)n2)c(=O)[nH]c1C` [Example 46, Ethyl 2-methyl-5-(2-(2-((2-methylpropyl)amino)-4-pyridinyl)-1,3-thiazol-4-yl)-6-oxo-1,6-dihydro-3-pyridinecarboxylate] as the compound, how does the melting point read?
The melting point was 260 °C (dec.).

Which melting point does the source give for `CCOC(=O)c1cc(-c2csc(-c3ccnc(NCc4ccccc4)c3)n2)c(=O)[nH]c1C` [Example 48, Ethyl 2-methyl-6-oxo-5-(2-(2-((phenylmethyl)amino)-4-pyridinyl)-1,3-thiazol-4-yl)-1,6-dihydro-3-pyridinecarboxylate] here?
The melting point was 290 °C (dec.).

For `CCOC(=O)c1cc(-c2csc(-c3cccs3)n2)c(=O)[nH]c1C` [Example 27], which melting point is on record?
Its melting point is 230 °C (dec.).

Which melting point does the source give for `CCOC(=O)c1cc(-c2csc(CS(C)(=O)=O)n2)c(=O)[nH]c1C` [Example 43, Ethyl 5-(2-{[(methyl)sulfonyl]methyl}(1,3-thiazol-4-yl))-2-methyl-6-oxo-1,6-dihydro-3-pyridinecarboxylate] here?
The melting point was 230 °C (dec.).

Which melting point does the source give for `CC(=O)NCCNc1cc(-c2nc(-c3ccc(C)[nH]c3=O)cs2)ccn1` [Example 59, N-(2-{4-[4-(6-Methyl-2-oxo-1,6-dihydropyridin-3-yl)-thiazol-2-yl]-pyridin-2-ylamino}-ethyl)-acetamide] here?
Its melting point is 230 °C (dec.).

Which melting point does the source give for `CCOC(=O)c1cc(-c2csc(-c3ccnc(NCC(N)=O)c3)n2)c(=O)[nH]c1C` (as salt: HCl) [Example 57, Ethyl 5-{2-[2-(carbamoylmethyl-amino)-pyridin-4-yl]-thiazol-4-yl}-2-methyl-6-oxo-1,6-dihydro-3-pyridinecarboxylate] here?
Its melting point is 270 °C (dec.).

For `COCc1ccc(-c2csc(-c3ccncc3)n2)c(=O)[nH]1` [Example 70, 6-(Methoxymethyl)-3-(2-(4-pyridinyl)-1,3-thiazol-4-yl)-2(1H)-pyridinone], which melting point is on record?
The melting point was 249 to 254 °C.

With `CCOC(=O)c1cc(-c2csc(-c3ccc(OC)cc3)n2)c(=O)[nH]c1C` [Example 41, Ethyl 2-methyl-6-oxo-5-{2-[4-methoxyphenyl](1,3-thiazol-4-yl)}-1,6-dihydro-3-pyridinecarboxylate] as the compound, how does the melting point read?
Its melting point is 240 °C (dec.).

For `CCOC(=O)c1cc(-c2csc(-c3ccnc(N)c3)n2)c(=O)[nH]c1C` [Example 65, Ethyl 2-methyl-6-oxo-5-(2-(2-(amino)-4-pyridinyl)-1,3-thiazol-4-yl)-1,6-dihydro-3-pyridinecarboxylate], which melting point is on record?
The melting point was greater than 260 °C.

With `Cc1[nH]c(=O)c(-c2csc(-c3ccnc(NCc4ccccn4)c3)n2)cc1C(=O)NCc1ccccn1` [Example 88, 2-Methyl-6-oxo-N-(2-pyridinylmethyl)-5-(2-(2-((2-pyridinylmethyl)amino)-4-pyridinyl)-1,3-thiazol-4-yl)-1,6-dihydro-3-pyridinecarboxamide] as the compound, how does the melting point read?
Its melting point is greater than 260 °C.

For `O=c1[nH]cc(Oc2ccccc2)cc1-c1csc(-c2ccncc2)n1` (as salt: salt) [Example 71, 5-Phenoxy-3-(2-(4-pyridinyl)-1,3-thiazol-4-yl)-2(1H)-pyridinone], which melting point is on record?
Its melting point is 243 to 245 °C.

Which melting point does the source give for `CCOC(=O)c1cc(-c2csc(-c3ccnc(NCc4ccc(F)cc4)c3)n2)c(=O)[nH]c1C` (as salt: HCl) [Example 55, Ethyl 5-{2-[2-(4-fluoro-benzylamino)-pyridin-4-yl]-thiazol-4-yl}-2-methyl-6-oxo-1,6-dihydro-3-pyridinecarboxylate] here?
Its melting point is 280 °C (dec.).

With `CCOC(=O)c1cc(-c2csc(-c3ccccc3)n2)c(=O)[nH]c1C` [Example 33, Ethyl 2-methyl-6-oxo-5-{2-phenyl(1,3-thiazol-4-yl)}-1,6-dihydro-3-pyridinecarboxylate] as the compound, how does the melting point read?
The melting point was 260 °C (dec.).

For `CCOC(=O)c1cc(-c2csc(-c3cccnc3)n2)c(=O)[nH]c1C` [Example 39], which melting point is on record?
Its melting point is 230 °C (dec.).

With `Cc1[nH]c(=O)c(-c2csc(-c3ccnc(NCC4CC4)c3)n2)cc1C(=O)NCC1CC1` (as salt: HCl) [Example 60, N-(Cyclopropylmethyl)-5-(2-(2-((cyclopropylmethyl)amino)-4-pyridinyl)-1,3-thiazol-4-yl)-2-methyl-6-oxo-1,6-dihydro-3-pyridinecarboxamide] as the compound, how does the melting point read?
Its melting point is greater than 260 °C.

With `CCOC(=O)c1cc(-c2csc(-c3ccnc(NCC4CCCC4)c3)n2)c(=O)[nH]c1C` (as salt: HCl) [Example 62, Ethyl 5-{2-[2-(Cyclopentyl)methylamino-pyridin-4-yl]-thiazol-4-yl}-2-methyl-6-oxo-1,6-dihydro-3-pyridinecarboxylate] as the compound, how does the melting point read?
The melting point was 260 °C (dec.).

With `CCOC(=O)c1cc(-c2csc(CS(=O)(=O)Cc3ccc(F)cc3)n2)c(=O)[nH]c1C` [Example 26, Ethyl 5-[2-({[(4-fluorophenyl)methyl]sulfonyl}mthyl)(1,3-thiazol-4-yl)]-2-methyl-6-oxo-1,6-dihydro-3-pyridinecarboxylate] as the compound, how does the melting point read?
The melting point was 300 °C (dec.).

For `CCOC(=O)c1cc(-c2csc(CS(=O)(=O)C(C)(C)C)n2)c(=O)[nH]c1C` [Example 38, Ethyl 5-(2-{[(tert-butyl)sulfonyl]methyl}(1,3-thiazol-4-yl))-2-methyl-6-oxo-1,6-dihydro-3-pyridinecarboxylate], which melting point is on record?
The melting point was 250 °C (dec.).

For `CCOC(=O)c1cc(-c2csc(-c3ccnc(Cl)c3)n2)c(=O)[nH]c1C` [Example 40], which melting point is on record?
The melting point was 250 °C (dec.).

For `CCOC(=O)c1cc(-c2csc(CS(=O)(=O)Cc3cccc(C(F)(F)F)c3)n2)c(=O)[nH]c1C` [Example 30], which melting point is on record?
The melting point was 300 °C (dec.).

With `CCOC(=O)c1cc(-c2csc(-c3c(Cl)cccc3Cl)n2)c(=O)[nH]c1C` [Example 35, Ethyl 5-[2-(2,6-dichlorophenyl)(1,3-thiazol-4-yl)]2-methyl-6-oxo-1,6-dihydro-3-pyridinecarboxylate] as the compound, how does the melting point read?
The melting point was 260 °C (dec.).

Which melting point does the source give for `CCOC(=O)c1cc(-c2csc(-c3ccnc(N4CCCCC4)c3)n2)c(=O)[nH]c1C` [Example 45, Ethyl 2-methyl-6-oxo-5-(2-(2-(1-piperidinyl)-4-pyridinyl)-1,3-thiazol-4-yl)-1,6-dihydro-3-pyridinecarboxylate] here?
The melting point was 260 °C (dec.).

For `CCOC(=O)c1cc(-c2csc(-c3sccc3CS(=O)(=O)c3ccc(Cl)cc3)n2)c(=O)[nH]c1C` [Example 44], which melting point is on record?
Its melting point is 300 °C (dec.).

With `CCCCNc1cc(-c2nc(-c3cc(C(=O)OCC)c(C)[nH]c3=O)cs2)ccn1` (as salt: HCl) [Example 56, Ethyl 5-[2-(2-butylamino-pyridin-4-yl)-thiazol-4-yl]-2-methyl-6-oxo-1,6-dihydro-3-pyridinecarboxylate] as the compound, how does the melting point read?
Its melting point is 230 °C (dec.).

Which melting point does the source give for `CCOC(=O)c1cc(-c2csc(-c3ccnc(NCc4ccco4)c3)n2)c(=O)[nH]c1C` (as salt: HCl) [Example 53, Ethyl 5-(2-(2-[(fur-2-ylmethyl)-amino]-pyridin-4-yl}-thiazol-4-yl)-2-methyl-6-oxo-1,6-dihydro-3-pyridinecarboxylate] here?
The melting point was 260 °C (dec.).

With `CCOC(=O)c1cc(-c2csc(CS(=O)(=O)c3ccc(Cl)cc3)n2)c(=O)[nH]c1C` [Example 25] as the compound, how does the melting point read?
Its melting point is 300 °C (dec.).

For `CCOC(=O)c1cc(-c2csc(-c3ccc(F)cc3)n2)c(=O)[nH]c1C` [Example 34, Ethyl 2-methyl-6-oxo-5-{2-[4-fluorophenyl](1,3-thiazol-4-yl)}-1,6-dihydro-3-pyridinecarboxylate], which melting point is on record?
Its melting point is 260 °C (dec.).

With `CCOC(=O)c1cc(-c2csc(-c3ccnc(N(C)C)c3)n2)c(=O)[nH]c1C(C)C` (as salt: hydrochloride) [Example 93, Ethyl 5-[2-(dimethylamino-pyridin-4-yl)-thiazol-4-yl]-2-isopropyl-6-oxo-1,6-dihydro-3-pyridinecarboxylate] as the compound, how does the melting point read?
Its melting point is greater than 230 °C.

With `CCOC(=O)c1cc(-c2csc(-c3ccnc(NC)c3)n2)c(=O)[nH]c1C(C)C` (as salt: HCl) [Example 94, Ethyl 5-[2-(methylamino-pyridin-4-yl)-thiazol-4-yl]-2-isopropyl-6-oxo-1,6-dihydro-3-pyridinecarboxylate] as the compound, how does the melting point read?
Its melting point is greater than 230 °C.

Which melting point does the source give for `CCOC(=O)c1cc(-c2csc(-c3ccsc3)n2)c(=O)[nH]c1C` [Example 31, Ethyl 2-methyl-6-oxo-5-{2-[3-thienyl](1,3-thiazol-4-yl)}-1,6-dihydro-3-pyridinecarboxylate] here?
The melting point was 230 °C (dec.).

Which melting point does the source give for `CCOC(=O)c1cc(-c2csc(CCn3cccc(C(F)(F)F)c3=O)n2)c(=O)[nH]c1C` [Example 51, Ethyl 2-methyl-6-oxo-5-(2-(2-(2-oxo-3-(trifluoromethyl)-1(2H)-pyridinyl)ethyl)-1,3-thiazol-4-yl)-1,6-dihydro-3-pyridinecarboxylate] here?
The melting point was 250 °C (dec.).

Which melting point does the source give for `CCOC(=O)c1cc(-c2csc(-c3ccnc(NC)c3)n2)c(=O)[nH]c1C` [Example 83, Ethyl 2-methyl-5-(2-(2-(methylamino)-4-pyridinyl)-1,3-thiazol-4-yl)-6-oxo-1,6-dihydro-3-pyridinecarboxylate] here?
The melting point was 270 °C (dec.).

With `CCOC(=O)c1cc(-c2csc(-c3ccnc(NCc4ccccn4)c3)n2)c(=O)[nH]c1C` [Example 90, Ethyl 2-methyl-6-oxo-5-(2-(2-((2-pyridinylmethyl)amino)-4-pyridinyl)-1,3-thiazol-4-yl)-1,6-dihydro-3-pyridinecarboxylate] as the compound, how does the melting point read?
Its melting point is 270 °C (dec.).

With `CCOC(=O)c1cc(-c2csc(-c3ccnc(CC)c3)n2)c(=O)[nH]c1C` [Example 29] as the compound, how does the melting point read?
Its melting point is 270 °C (dec.).

For `CCOC(=O)c1cc(-c2csc(CS(=O)(=O)Cc3ccco3)n2)c(=O)[nH]c1C` [Example 37, Ethyl 5-(2-{[(2-furylmethyl)sulfonyl]methyl}(1,3-thiazol-4-yl))-2-methyl-6-oxo-1,6-dihydro-3-pyridinecarboxylate], which melting point is on record?
Its melting point is 290 °C (dec.).
